# Experimental data taken from patent US9708315B2, “1,2,4-triazolo[4,3-a]pyridine compounds and their use as positive allosteric modulators of MGLUR2 receptors” (Janssen Pharmaceutica NV, priority 2013, dated 2017).
# How the values were obtained:
# [1] = system: Adult male CF No 1 albino mice; experiment: 6 Hz psychomotor seizure test in mice; type: in vivo; settings: 10 mg/kg p.o.
# Description: Test compounds were administered using an optimal fluid volume to body fluid ratio. Test compounds were administered to mice in a volume of 0.01 ml/g of body weight (White, H. S., et al., General principles: Experimental selection, quantification, and evaluation of antiepileptic drugs, in Antiepileptic Drugs, Fourth Edition, R. H. Levy, R. H. Mattson, and B. S. Meldrum, Editors. 1995, Raven Press, Ltd.: New York. p. 99-110). The test compound number 6 was administered orally (p.o.). For each of the tests performed on the test compound, a 40% Hydroxypropyl-β-cyclodextrin (Hp-β-CD) stock solution was first prepared and utilized for formulating the test compound number 6 at the desired concentrations for testing via the oral (p.o.) route. Final compound concentrations were administered as suspensions in 20% Hp-β-CD. A 20% Hp-β-CD solution was used for the vehicle groups.
# Adult male CF No 1 albino mice (26-35 g) were obtained from Charles River, Portage, Mich. The animals were maintained on an adequate diet (Prolab RMH 3000) and allowed free access to food and water, except during the short time they were removed from their cage for testing. Animals newly received in the laboratory were allowed sufficient time to correct for possible food and water restriction incurred during transit before being employed in testing. All mice were housed in plastic cages in specially constructed rooms with controlled humidity, exchange of air and controlled lighting (12 hours on-12 hours off). The animals were housed, fed, and handled in a manner consistent with the recommendations in the National Council Publication, “Guide for the Care and Use of Laboratory animals.” Experimental Design General Methods Minimal Motor Impairment (MMI):
# Groups of four animals each were administered test compounds and each group was tested at one of five time points: 0.25, 0.5, 1, 2, or 4 h post-treatment (White et al. 1995). TPE was determined using the 6 Hz (32 mA) assay. The time (0.25, 0.5, 1, 2, or 4 h post-treatment) at which maximal protection was observed was considered the Time of Peak Effect (TPE). At the TPE determined for this study, or determined previously, compounds were tested in the 6 Hz assay (32 and/or 44 mA), across several doses and comprising doses that elicited little or no protection to full protection. […] Serum Collection for pK/pD Analysis: In various tests, animals were sacrificed following testing, and trunk blood and/or brain tissue (whole brains) was collected for quantification of drug levels. Immediately after testing, animals were decapitated and trunk blood was collected into a BD Vacutainer® tube containing K2EDTA and chilled on ice until centrifugation. […]
# male NMRI mice = experiment: Phencyclidine (PCP)-induced hyperlocomotion in mice; type: in vivo; settings: Mus musculus, PO, PCP 5 mg/kg s.c., read-out: ED50 PCP (inhibition of PCP-induced hyperlocomotion)
# Description: On the day of experiments, the mice were brought into the procedural room. They were housed individually and allowed to acclimate for at least a half hour prior to testing. Although the studies were conducted during the light cycle (from 8:00 to 16:00 h), the procedure room was only sparsely lit (3 to 30 LUX) to provide better contrast for the video tracking. Local lighting was used for the injection procedures. During each trial, an individual mouse was placed in an open field arena (grey PVC cylinder with a height of 40 cm and a diameter of 22.5 cm). Each arena was placed on an infrared LED (8×8 LEDs)-lit box (white PVC squared box; 40×40 cm^2; height 12.5 cm). Each mouse was placed in the center of the arena and allowed to explore freely for 30 min. After each trial, the arena was cleaned with a wet and subsequently with a dry cleaning cloth. […] Animal behavior was recorded and analyzed using the Noldus Ethovision XT Video Tracking System (Version 3.1; Noldus, Wageningen, The Netherlands). The total distance traveled (cm) was calculated. […]
# Test compound or solvent was administered at a pre-defined time before measurement (standard: 30 min) to male NMRI mice that were challenged with phencyclidine (PCP; 5 mg/kg, s.c.) 30 min before measurement. Activity was measured for a period of 30 min.
smiles,measurement,setting,value
"C[C@H](Oc1ccc(F)cc1F)c1ccn2c(CC3CC3)nnc2c1C(F)(F)F [Compound 6, 3-(Cyclopropylmethyl)-7-[(1S)-1-(2,4-difluorophenoxy)ethyl]-8-(trifluoromethyl)[1,2,4]triazolo[4,3-a]pyridine]",# protected/# tested,"[1]; 6 Hz 32 mA, 1 h",0/4
same,# protected/# tested,"[1]; 6 Hz 32 mA, 4 h",0/4
same,# protected/# tested,"[1]; dose-response, 6 Hz 32 mA, 0.5 h TPE",6/8
same,# protected/# tested,"[1]; dose-response, 6 Hz 44 mA, 0.5 h TPE",0/8
same,ED50,male NMRI mice,28.3 mg/kg
